Values joined by “and” are separate entries in the source; they are usually repeats but may differ in a detail not shown here. Equal entries are not always repeated.
Legend:
HLC = test: Repeated-exposure DILI training compounds, resazurin conversion, HLC; details: replicates, listed as Ximelatagran
Method in brief: (§1)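 PSC-derived hepatocyte-like cells were differentiated in 384-well plates, and drugs were added after 8 h of attachment. Viability was measured by resazurin conversion and related to therapeutic Cmax values, with untreated wells as negative control.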

HC6X = test: Repeated-exposure DILI training compounds, resazurin conversion, HC6X; details: replicates, listed as Ximelatagran
Method in brief: as §1

HC3X = test: Repeated-exposure DILI training compounds, resazurin conversion, HC3X; details: for resazurin conversion (Supplementary Figure 7D): HC3X AAGLY D40, replicates, listed as Ximelatagran
Method in brief: as §1

HepG2 = test: Repeated-exposure DILI training compounds, resazurin conversion, HepG2; details: replicates, listed as Ximelatagran
Method in brief: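 PSC-derived cells differentiated in 384-well format, plus HepG2 seeded at 40,000 cells/well, received drugs after 8 h of attachment; untreated wells served as negative controls. Viability was measured by resazurin conversion and related to therapeutic Cmax values.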

CCOC(=O)CN[C@@H](C(=O)N1CC[C@H]1C(=O)NCc1ccc(/C(N)=N\O)cc1)C1CCCCC1 [ximelagatran]
resazurin conversion (Supplementary Figure 7D) (HLC; HLC AAGLY D40, 30 uM): 87.9 and 61.4 and 89.7 and 86.8 and 95.5 and 101.7 | resazurin conversion (Supplementary Figure 7D) (HLC; HLC AAGLY D40, 50 uM): 102.7 and 110.5 and 84 and 85.7 and 101.4 and 47.2 | resazurin conversion (Supplementary Figure 7D) (HLC; HLC AAGLY D40, 100 uM): 101.8 and 83.1 and 91.6 and 97.8 and 108.1 and 71.2 | resazurin conversion (Supplementary Figure 7D) (HLC; HLC AAGLY D40, 300 uM): 102 and 100.4 and 103.4 and 99.6 and 91.1 and 43.4 | resazurin conversion (Supplementary Figure 7D) (HLC; HLC AAGLY D40, 500 uM): 103.1 and 102.1 and 106.2 and 106.4 and 103.3 and 93.1 | resazurin conversion (Supplementary Figure 7D) (HLC; HLC AAGLY D40, 1000 uM): 124.2 and 94.4 and 100.6 and 122 and 108.3 and 107.9 | resazurin conversion (Supplementary Figure 7D) (HLC; HLC AAGLY D40, 2000 uM): 74 and 131.7 and 126.4 and 135.7 and 116.8 and 129.6 | resazurin conversion (Supplementary Figure 7D) (HLC; HLC AAGLY D40, 4000 uM): 129.4 and 115 and 25.5 and 112.7 and 127.1 and 50.9 | resazurin conversion (Supplementary Figure 7D) (HLC; HLC LDM D40, 10 uM): 103 and 119.6 and 106.5 and 118.8 | resazurin conversion (Supplementary Figure 7D) (HLC; HLC LDM D40, 30 uM): 98.9 and 98.8 and 106 and 104.1 and 100.4 and 102.4 | resazurin conversion (Supplementary Figure 7D) (HLC; HLC LDM D40, 50 uM): 120.6 and 118.1 and 72.7 and 111.9 and 69.1 and 123.9 | resazurin conversion (Supplementary Figure 7D) (HLC; HLC LDM D40, 100 uM): 93.8 and 126.7 and 78.4 and 121.1 and 87.3 and 126.3 | resazurin conversion (Supplementary Figure 7D) (HLC; HLC LDM D40, 300 uM): 125.4 and 106 and 125.6 and 93.6 and 136.9 and 112.2 | resazurin conversion (Supplementary Figure 7D) (HLC; HLC LDM D40, 500 uM): 130.3 and 128.1 and 99.5 and 124.6 and 98 and 115.9 | resazurin conversion (Supplementary Figure 7D) (HLC; HLC LDM D40, 1000 uM): 132.9 and 140 and 126.4 and 146.9 and 116.4 and 158.5 | resazurin conversion (Supplementary Figure 7D) (HLC; HLC LDM D40, 2000 uM): 87.8 and 64.2 and 95.2 and 125.1 and 69.7 and 117.1 | resazurin conversion (Supplementary Figure 7D) (HLC; HLC LDM D40, 4000 uM): 52.7 and 74.5 and 71.5 and 69.4 and 112 and 163.8 | resazurin conversion (Supplementary Figure 7D) (HC6X; HC6X AAGLY D40, 10 uM): 93.8 and 58.7 and 78.1 and 118.1 | resazurin conversion (Supplementary Figure 7D) (HC6X; HC6X AAGLY D40, 30 uM): 71.1 and 54.3 and 108.4 and 77.4 and 109.2 and 98.7 | resazurin conversion (Supplementary Figure 7D) (HC6X; HC6X AAGLY D40, 50 uM): 68.8 and 53.6 and 125.9 and 98.4 and 222.1 and 82.6 | resazurin conversion (Supplementary Figure 7D) (HC6X; HC6X AAGLY D40, 100 uM): 99.7 and 88.3 and 135.4 and 113.5 and 107.4 and 93.9 | resazurin conversion (Supplementary Figure 7D) (HC6X; HC6X AAGLY D40, 300 uM): 82 and 93.2 and 129.1 and 140.3 and 141.2 and 166.5 | resazurin conversion (Supplementary Figure 7D) (HC6X; HC6X AAGLY D40, 500 uM): 65.3 and 103.3 and 98.2 and 91.7 and 122.8 and 148.3 | resazurin conversion (Supplementary Figure 7D) (HC6X; HC6X AAGLY D40, 1000 uM): 71.6 and 76.5 and 78.4 and 144 and 115.7 and 139.1 | resazurin conversion (Supplementary Figure 7D) (HC6X; HC6X AAGLY D40, 2000 uM): 61.7 and 53.9 and 78.6 and 67 and 113.9 and 90 | resazurin conversion (Supplementary Figure 7D) (HC6X; HC6X AAGLY D40, 4000 uM): 54.4 and 81.3 and 84.4 and 85.7 and 55.2 and 56.8 | resazurin conversion (Supplementary Figure 7D) (HC6X; HC6X AAGLY D40 Remove dox, 30 uM): 72.9 and 78.3 and 89.9 and 101.5 and 95.4 and 95.8 | resazurin conversion (Supplementary Figure 7D) (HC6X; HC6X AAGLY D40 Remove dox, 50 uM): 55.3 and 86.1 and 70.5 and 85.8 and 92.1 and 68.6 | resazurin conversion (Supplementary Figure 7D) (HC6X; HC6X AAGLY D40 Remove dox, 100 uM): 82.1 and 85 and 79 and 110.7 and 88.3 and 96.6 | resazurin conversion (Supplementary Figure 7D) (HC6X; HC6X AAGLY D40 Remove dox, 300 uM): 99.4 and 92.8 and 102.5 and 91.4 and 94.8 and 77.9 | resazurin conversion (Supplementary Figure 7D) (HC6X; HC6X AAGLY D40 Remove dox, 500 uM): 78.1 and 81.7 and 105.3 and 97 and 101.1 and 82.7 | resazurin conversion (Supplementary Figure 7D) (HC6X; HC6X AAGLY D40 Remove dox, 1000 uM): 77.2 and 89.1 and 81.5 and 96.6 and 108.9 and 116.8 | resazurin conversion (Supplementary Figure 7D) (HC6X; HC6X AAGLY D40 Remove dox, 2000 uM): 95.3 and 105.5 and 72.8 and 94.8 and 76.2 and 80.9 | resazurin conversion (Supplementary Figure 7D) (HC6X; HC6X AAGLY D40 Remove dox, 4000 uM): 46.6 and 40.3 and 96 and 68.1 and 83.6 and 42.4 | resazurin conversion (Supplementary Figure 7D) (HC3X; 10 uM): 103.6 and 112.1 and 116.7 and 110.7 and 88 and 80.4 | resazurin conversion (Supplementary Figure 7D) (HC3X; 30 uM): 112.5 and 93.4 and 100.9 and 65.5 and 110.1 and 86 | resazurin conversion (Supplementary Figure 7D) (HC3X; 50 uM): 112.6 and 97.1 and 99.6 and 78.9 and 96.7 and 79.4 | resazurin conversion (Supplementary Figure 7D) (HC3X; 100 uM): 99 and 94.2 and 111.5 and 113 and 97.2 and 95.7 | resazurin conversion (Supplementary Figure 7D) (HC3X; 300 uM): 105.9 and 98.6 and 86.6 and 80.1 and 95.6 and 93.9 | resazurin conversion (Supplementary Figure 7D) (HC3X; 500 uM): 93.3 and 104.7 and 99.6 and 103.7 and 88.7 and 115 | resazurin conversion (Supplementary Figure 7D) (HC3X; 1000 uM): 89.5 and 109.6 and 93 and 88.2 and 108.4 and 91.9 | resazurin conversion (Supplementary Figure 7D) (HC3X; 2000 uM): 61.4 and 104.7 and 97.3 and 97.1 and 64.3 and 60.4 | resazurin conversion (Supplementary Figure 7D) (HC3X; 4000 uM): 43.9 and 48.4 and 38 and 42.8 and 47.8 and 45 | IC50/Cmax (HC3X; human): 2438.67 | resazurin conversion (Supplementary Figure 7D) (HepG2; HepG2 AAGLY D30, 10 uM): 94.6 and 101.9 and 93.6 | resazurin conversion (Supplementary Figure 7D) (HepG2; HepG2 AAGLY D30, 30 uM): 92.6 and 98.4 and 83.3 and 96.4 and 96.6 and 94.8 | resazurin conversion (Supplementary Figure 7D) (HepG2; HepG2 AAGLY D30, 50 uM): 93.8 and 101.4 and 83.8 and 100.6 and 100.8 and 103 | resazurin conversion (Supplementary Figure 7D) (HepG2; HepG2 AAGLY D30, 100 uM): 87.1 and 96.4 and 79.9 and 96 (2×) and 99.8 | resazurin conversion (Supplementary Figure 7D) (HepG2; HepG2 AAGLY D30, 300 uM): 79.2 and 92.1 and 83.1 and 91.5 (2×) and 86.4 | resazurin conversion (Supplementary Figure 7D) (HepG2; HepG2 AAGLY D30, 500 uM): 73.8 and 82.7 and 72.5 and 77.3 and 81.8 and 90.8 | resazurin conversion (Supplementary Figure 7D) (HepG2; HepG2 AAGLY D30, 1000 uM): 33.4 and 32.8 and 32.2 and 33.5 and 33 and 34 | resazurin conversion (Supplementary Figure 7D) (HepG2; HepG2 AAGLY D30, 2000 uM): 32.1 and 33.4 and 32.3 and 33 and 31.5 and 35.4 | resazurin conversion (Supplementary Figure 7D) (HepG2; HepG2 AAGLY D30, 4000 uM): 32.2 and 33.1 and 31.8 and 32.9 (2×) and 31.4 | resazurin conversion (Supplementary Figure 7D) (HepG2; HepG2 CTL D7, 10 uM): 100 | resazurin conversion (Supplementary Figure 7D) (HepG2; HepG2 CTL D7, 30 uM): 113.6 and 106.8 and 92.5 and 99.4 and 103.9 and 98.2 | resazurin conversion (Supplementary Figure 7D) (HepG2; HepG2 CTL D7, 50 uM): 100.3 and 102 and 94.9 and 85.4 and 97.6 and 93 | resazurin conversion (Supplementary Figure 7D) (HepG2; HepG2 CTL D7, 100 uM): 99.5 and 95.1 and 87 and 84.8 and 92.1 and 91.7 | resazurin conversion (Supplementary Figure 7D) (HepG2; HepG2 CTL D7, 300 uM): 98.7 and 94.5 and 90.1 and 84 and 87.6 and 84.8 | resazurin conversion (Supplementary Figure 7D) (HepG2; HepG2 CTL D7, 500 uM): 86.4 and 89.2 and 85.2 and 81.4 and 85.9 and 81.5 | resazurin conversion (Supplementary Figure 7D) (HepG2; HepG2 CTL D7, 1000 uM): 71.2 and 56.7 and 60.3 and 67.6 and 70.2 and 66 | resazurin conversion (Supplementary Figure 7D) (HepG2; HepG2 CTL D7, 2000 uM): 35.7 and 15 and 22 and 29.6 and 28.3 and 27.1 | resazurin conversion (Supplementary Figure 7D) (HepG2; HepG2 CTL D7, 4000 uM): 7.9 (2×) and 7.7 (3×) and 8

From PMC7069944, “Amino acid levels determine metabolism and CYP450 function of hepatocytes and hepatoma cell lines” (Nature Communications, 2020)
